Values of other authors as cited in patent publication US12100485B2, “Machine learning and molecular simulation based methods for enhancing binding and activity prediction” (The Board of Trustees of the Leland Stanford Junior …, priority 2018, dated 2024).

system: μOR; conditions: not given

Compound | Action
Oc1ccc2c3c1O[C@H]1[C@@H](O)C=C[C@H]4[C@@H](C2)N(CCc2ccccc2)CC[C@@]341 [n-phenethylnormorphine] | agonist
CCC(OC(C)=O)C(CC(C)N(C)C)(c1ccccc1)c1ccccc1 (stereo not shown) [acetylmethadol] | agonist
CCOC(=O)C1(c2ccccc2)CCN(CCOCc2ccccc2)CC1 [benzethidine] | agonist
CC[C@@H](O)C(C[C@@H](C)N(C)C)(c1ccccc1)c1ccccc1 [alphamethadol] | agonist
CN1CC[C@]23c4c5ccc(O)c4O[C@H]2C(=O)CC[C@@]3(O)[C@H]1C5 [oxymorphone] | agonist
CCC(=O)O[C@]1(c2ccccc2)CCN(C)C[C@@H]1CC [meprodine] | agonist
hemorphin-4 | agonist
CC(=O)OC1(c2ccccc2)CCN(CCc2ccccc2)CC1 [pepap] | agonist
COc1ccsc1CNCC[C@@]1(c2ccccn2)CCOC2(CCCC2)C1 [oliceridine] | agonist
C=CCC1CN(C)CCC1(OC(=O)CC)c1ccccc1 (stereo not shown) [allylprodine] | agonist
CCOC(=O)C1(c2ccccc2)CCN(CCOCC2CCCO2)CC1 (stereo not shown) [furethidine] | agonist
CC(C)C[C@@H](NC(=O)[C@H](Cc1ccccc1)NC(=O)CNC(=O)[C@@H](C)NC(=O)[C@@H](N)Cc1ccc(O)cc1)C(=O)O [dadle] | agonist
COC(=O)/C=C/C(=O)N[C@@H]1CC[C@@]2(O)[C@H]3Cc4ccc(O)c5c4[C@@]2(CCN3CC2CC2)[C@H]1O5 [beta-funaltrexamine] | antagonist
N#CC(CCN1CCC(C(N)=O)(N2CCCCC2)CC1)(c1ccccc1)c1ccccc1 [piritramide] | agonist
Cc1ccc(/C=C/C(=O)N[C@@]23CCC(=O)[C@@H]4Oc5c(O)ccc6c5[C@@]42CCN(CC2CC2)[C@@H]3C6)cc1 [methocinnamox] | antagonist
N#CC(CCN1CCC(C(=O)O)(c2ccccc2)CC1)(c1ccccc1)c1ccccc1 [difenoxin] | agonist
COc1ccc(CN(C(=O)[C@@H](N)Cc2c(C)cc(C(N)=O)cc2C)[C@@H](C)c2ncc(-c3ccccc3)[nH]2)cc1C(=O)O [eluxadoline] | agonist
C[C@H]1CN(CC[C@H](O)C2CCCCC2)CC[C@@]1(C)c1cccc(O)c1 [ly-255582] | antagonist

same assay, conditions: known pharmacology, training dataset

Compound | Action
O=C1CC[C@@]2(O)[C@H]3Cc4ccc(O)c5c4[C@@]2(CCN3CC2CC2)[C@H]1O5 [naltrexone] | Antagonists
